Experiments:
Test in all cases: relative viability (nuclei count vs DMSO), 5 days (fraction); higher = more cells survive
Quizartinib = compound: CC(C)(C)c1cc(NC(=O)Nc2ccc(-c3cn4c(n3)sc3cc(OCCN5CCOCC5)ccc34)cc2)no1 [Quizartinib]
Method in brief: (§1)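 Only plates meeting two conditions passed: control CV below 25% and at least one doubling. Lung cancer cell lines, kept overnight at 37 °C in 1536-well plates, were pinned with five library-drug doses (not always all listed) √10 apart on vehicle-anchored plates and grown 5 days without medium change. A one-step fix, permeabilisation and Hoechst stain preceded 4× imaging and MetaXpress nuclear counting. Viability equals treated-well nuclei divided by vehicle-well nuclei, as the median over plates.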

YM155 = compound: COCC[n+]1c2c(n(Cc3cnccn3)c1C)C(=O)c1ccccc1C2=O [YM155]
Method in brief: as §1

Quizartinib + Alpelisib = compound: CC(C)(C)c1cc(NC(=O)Nc2ccc(-c3cn4c(n3)sc3cc(OCCN5CCOCC5)ccc34)cc2)no1 [Quizartinib] + Cc1nc(NC(=O)N2CCC[C@H]2C(N)=O)sc1-c1ccnc(C(C)(C)C(F)(F)F)c1 [Alpelisib] (partner 2 µM)
Method in brief: (§2)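 Nuclei were stained with Hoechst during a one-step fixation (final 0.05% Triton X-100, 1% formaldehyde, 1 ug/ml Hoechst) carried out 5 days after dosing, then counted on 4× images. The cells, lung cancer lines in 1536-well plates, had been dosed by pin tool the day after seeding with one drug alone or a fixed anchor-drug dose plus five library-drug doses (not always all listed) in √10 steps. Relative viability is the nuclei count in treated wells divided by that in vehicle wells, and each value is the median of duplicate plates.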

YM155 + Bortezomib = compound: COCC[n+]1c2c(n(Cc3cnccn3)c1C)C(=O)c1ccccc1C2=O [YM155] + CC(C)C[C@H](NC(=O)[C@H](Cc1ccccc1)NC(=O)c1cnccn1)B(O)O [Bortezomib] (partner 0.002 µM)
Method in brief: as §2

Cell Line	relative viability (Quizartinib; 0.001 µM)	relative viability (Quizartinib; 0.003162 µM)	relative viability (Quizartinib; 0.01 µM)	relative viability (Quizartinib; 0.03162 µM)	relative viability (Quizartinib; 0.1 µM)	relative viability (YM155; 0.002 µM)	relative viability (YM155; 0.006325 µM)	relative viability (YM155; 0.02 µM)	relative viability (YM155; 0.06325 µM)	relative viability (Quizartinib + Alpelisib; first compound 0.001 µM)	relative viability (Quizartinib + Alpelisib; first compound 0.003162 µM)	relative viability (Quizartinib + Alpelisib; first compound 0.01 µM)	relative viability (Quizartinib + Alpelisib; first compound 0.03162 µM)	relative viability (Quizartinib + Alpelisib; first compound 0.1 µM)	relative viability (YM155 + Bortezomib; first compound 0.002 µM)	relative viability (YM155 + Bortezomib; first compound 0.006325 µM)	relative viability (YM155 + Bortezomib; first compound 0.02 µM)	relative viability (YM155 + Bortezomib; first compound 0.06325 µM)
PC-3 [JPC-3]	0.978	1.02	1.04	0.852	1.08	1.01	1.07	1.1	1	0.953	1.01	1.14	1.02	0.998	0.823	0.94	0.774	0.904
PC-14	0.884	0.985	1.09	0.833	1.18	0.939	1.02	1.03	0.931	0.854	0.903	1.03	0.877	0.89	0.905	0.861	0.93	0.771
RERF-LC-KJ	0.954	0.926	1.03	0.99	0.915	1	0.973	1.01	1.01	0.78	0.597	0.782	0.747	0.69	1.11	1.18	1.09	1.25
SK-LU-1	0.88	0.861	1.11	0.999	1.06	0.86	1.06	1.07	0.91	0.96	0.876	1.17	0.982	0.81	1.05	1.04	1.54	1.09
SW 1573	0.87	0.971	1.09	0.481	1.08	1.02	0.939	0.803	0.394	0.779	0.728	0.836	0.686	0.793	0.95	0.946	0.954	0.568
UMC-11	0.723	0.945	0.983	0.966	0.988	0.889	0.998	1.04	0.959	0.924	0.948	1.13	0.947	1.1	0.692	0.557	0.719	0.667
